Columns and labels:
Type in all cases: cell-based
[1] = system: AsPC-1 cells; experiment: 3D cell proliferation assay (CellTiter Glo-3D) in AsPC-1 cells; conditions: ASPC1, 120 h; AsPC-1, human pancreatic cancer cell strain, KRAS G12D mutation; 3D culture, 2% FBS, 5 days; read-out: AsPC-1 AP IC50
Text: MIA PaCa-2 cells were purchased from ATCC, Cat. No. CRL-1420; AsPC-1 cells were purchased from ATCC, Cat. No. CRL-1682; NCI-H441 cells were purchased from ATCC, Cat. No. HTB-174; NCI-H1975 cells were purchased from ATCC, Cat. No. CRL-5908; DMEM medium was purchased from Gibco, Cat. No. 11995-065; RPMI-1640 medium was purchased from Gibco, Cat. No. 11875-093; FBS was purchased from Gibco, Cat. No. 10099-141C; penicillin/streptomycin double-antibiotic solution (PS) was purchased from Gibco, Cat. No. 15140-122; Horse serum was purchased from Gibco, Cat. No. 16050130; trypsin (containing EDTA) was purchased from Gibco, Cat. No. 25200-072; DMSO was purchased from VWRAMRESCO, Cat. No. 0231-500ML; 384-well cell culture plates were purchased from Corning, Cat. No. 3830; white-bottomed, opaque 384-well assay plates were purchased from Corning, Cat. No. 3570; CellTiter Glo-3D kit was purchased from Promega, Cat. No. G9683; cell counter was purchased from CHEMOMETEC, model: NC-200; microplate reader was purchased from PerkinElmer, model: EnVision.
MIA PaCa-2, a human pancreatic cancer cell strain endogenously containing a KRAS^G12Cmutation, was cultured in a complete medium containing DMEM + 10% FBS + 2.5% Horse serum + 1% PS. AsPC-1, a human pancreatic cancer cell strain endogenously containing a KRAS^G12D mutation, was cultured in a complete medium containing RPMI-1640 + 10% FBS + 1% PS. NCI-H441 cells, a human lung cancer cell strain endogenously containing a KRAS^G12V mutation, were cultured in a complete medium containing RPMI-1640 + 10% FBS + 1% PS. NCI-H1975, a KRAS wild-type human lung cancer cell strain whose cell proliferation […], was cultured in a complete medium containing RPMI-1640 + 10% FBS + 1% PS.
The cells were digested with trypsin (containing EDTA), collected in their respective low-serum complete media containing 2% FBS (for MIA Paca-2 cell culture: DMEM + 2% FBS + 0.5% Horse serum + 1% PS), and counted. After the cell density was adjusted as required, MIA PaCa-2 cells (200 cells/well), AsPC-1 cells (800 cells/well), NCI-H441 cells (800 cells/well), or NCI-H1975 cells (400 cells/well) were seeded into a 384-well cell culture plate, with the volume of the medium in each well being 45 µL. The cell culture plate was incubated in an incubator at 37 °C with 5% CO2 overnight. A series of 3.16-fold gradient dilutions of a 1000× compound stock solution were prepared with DMSO, and then diluted 100-fold with the complete medium containing 2% FBS described above to give 10× compound stock solutions. On the day after cell seeding, 5 µL of the 10× compound stock solution was added to each cell culture well. As a result, the final concentration of the compound in the cell culture well became 1×, and the DMSO content in the well was 0.1%. In addition to the compound-treated wells described above, cell-containing DMSO control wells (with 5 µL of the complete medium containing 1% DMSO added to each well) and cell-free medium control wells (containing 50 µL of the complete medium with 2% FBS) were also set. The culture plate was incubated in an incubator at 37 °C with 5% CO2 for another 5 days, and then 30 µL of CellTiter-Glo working solution was added to each well. The mixture was well mixed, incubated for 30 min, left to stand at room temperature for 30 min, and then transferred to a white-bottomed, opaque 384-well assay plate at 40 µL/well. The chemiluminescence values (RLU) were measured using a microplate reader, and the cell proliferation inhibition rate for each well was calculated: IR(%) = (RLUDMSO - RLUcompound)/(RLUDMSO - RLUblank) × 100%, where RLUDMSO is the average RLU signal value from the DMSO control well samples, RLUblank is the average RLU signal value from the medium control well samples, and RLUcompound is the RLU signal value from the compound-treated well samples. […]

[2] = system: p-ERK; experiment: Cell p-ERK assay (HTRF, Advance ERK phospho-T202/Y204 kit) in NCI-H441 cells; conditions: Homo sapiens, NCI-H441, 3 h, NCI-H441, human non-small cell lung cancer cell strain, KRAS G12V mutation; 3 h compound incubation
Procedure, shortened: (§1)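 AsPC-1 (KRAS G12D) or NCI-H441 (KRAS G12V) cells seeded overnight, then treated 3 h at 37 °C with compound (0.1% DMSO) in RPMI-1640/10% FBS. Lysates assayed for ERK phospho-T202/Y204 by HTRF; inhibition vs DMSO and blank wells, IC50 from four-parameter fit.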

[3] = system: NCI-H441 cells; experiment: 3D cell proliferation assay (CellTiter Glo-3D) in NCI-H441 cells; conditions: Homo sapiens, NCI-H441, 120 h, NCI-H441, human lung cancer cell strain, KRAS G12V mutation; 3D culture, 2% FBS, 5 days; read-out: H441 AP IC50
Procedure, shortened: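 KRAS^G12V NCI-H441 and KRAS^G12D AsPC-1 cells (800 cells/well each) grown in RPMI-1640 with 2% FBS and treated the day after seeding with 3.16-fold compound dilutions (0.1% DMSO) for 5 days at 37 °C. Viability by CellTiter-Glo 3D luminescence; inhibition versus DMSO and cell-free controls, IC50 from four-parameter fit.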

[4] = system: p-ERK; experiment: Cell p-ERK assay (HTRF, Advance ERK phospho-T202/Y204 kit) in AsPC-1 cells; conditions: ASPC1; AsPC-1, human pancreatic cancer cell strain, KRAS G12D mutation; 3 h compound incubation
Procedure, shortened: as §1

An IC50 [1] of 1.54 nM, an IC50 [2] of 2.03 nM and an IC50 [3] of 1.12 nM were found for CCn1cc2c(c1-c1cc(C#CCN3CCC3)cnc1[C@H](C)OC)CC(C)(C)COC(=O)[C@@H]1CCCN(N1)C(=O)[C@@H](NC(=O)[C@H]1[C@H](C)[C@@H]1C)Cc1nc(cs1)/C=C/2 (atropisomer, axis not shown; (Ra)) [Compound Z70, (1r,2R,3S)-N-((4^2Z, 8^3S,2E,6S)-(Ra)-1^5-(5-(3-(azetidin-1-yl)prop-1-yn-1-yl)-2-((S)-1-methoxyethyl)pyridin-3-yl)-1^1-ethyl-12,12-dimethyl-7,9-dioxo-8^1,8^2,8^3,8^4,8^5,8^6-hexahydro-1^1H-10-oxa-4(4,2)-thiazola-8(1,3)-pyridazina-1(3,4)-pyrrolacyclotridecaphan-2-en-6-yl)-2,3-dimethylcyclopropane-1-carboxamide] in this work. For the same compound, the IC50 [4] was 3.6 nM.
An IC50 [1] of 1.34 nM, an IC50 [2] of 0.88 nM and an IC50 [3] of 0.91 nM were found for CCn1nc2c(c1-c1cc(C#CCN3CCC(C#N)CC3)cnc1[C@H](C)OC)CC(C)(C)COC(=O)[C@@H]1CCCN(N1)C(=O)[C@@H](NC(=O)[C@H]1[C@H](C)[C@@H]1C)Cc1nc(cs1)/C=C/2 (atropisomer, axis not shown; (Ra)) [Compound Z73, (1r,2R,3S)-N-((4^2Z,8^3S,2E,6S)-(Ra)-1^5-(5-(3-(4-cyanopiperidin-1-yl)prop-1-yn-1-yl)-2-((S)-1-methoxyethyl)pyridin-3-yl)-1^1-ethyl-12,12-dimethyl-7,9-dioxo-8^1,8^2,8^3,8^4,8^5,8^6-hexahydro-1^1H-10-oxa-4(4,2)-thiazola-8(1,3)-pyridazina-1(3,4)-pyrrolacyclotridecaphan-2-en-6-yl)-2,3-dimethylcyclopropane-1-carboxamide] in this work. The IC50 [4] was 1.73 nM.
An IC50 [1] of 0.16 nM, an IC50 [2] of 0.2 nM and an IC50 [3] of 0.18 nM were found for CCn1c(F)c2c(c1-c1cc(C#CCN3CCS(=O)(=O)CC3)cnc1[C@H](C)OC)CC(C)(C)COC(=O)[C@@H]1CCCN(N1)C(=O)[C@@H](NC(=O)[C@H]1[C@H](C)[C@@H]1C)Cc1nc(cs1)/C=C/2 (atropisomer, axis not shown; (Ra)) [Compound Z80, (1r,2R,3S)-N-((4^2Z,8^3S,2E,6S)-(Ra)-1^5-(5-(3-(1,1-dioxidothiomorpholino)prop-1-yn-1-yl)-2-((S)-1-methoxyethyl)pyridin-3-yl)-1^1-ethyl-1^2-fluoro-12,12-dimethy^l-7,9-dioxo-8^1,8^2,8^3,8^4,8^5,8^6-hexahydro-1^1H-10-oxa-4(4,2)-thiazola-8(1,3)-pyridazina-1(3,4)-pyrrolacyclotridecaphan-2-en-6-yl)-2,3-dimethylcyclopropane-1-carboxamide] in this work. The IC50 [4] was 0.24 nM.
An IC50 [1] of 0.11 nM, an IC50 [2] of 0.23 nM and an IC50 [3] of 0.15 nM were found for CCn1cc2c(c1-c1cc(C#CCN3CCC(C#N)(CN)CC3)cnc1[C@H](C)OC)CC(C)(C)COC(=O)[C@@H]1CCCN(N1)C(=O)[C@@H](NC(=O)[C@H]1[C@@H]3COC[C@@H]31)Cc1nc(co1)/C=C/2 (atropisomer, axis not shown; (Ra)) [Compound Z89, (1R,5S,6r)-N-((4^2Z,8^3S,2E, 6S)-(Ra)-1^5-(5-(3-(4-(aminomethyl)-4-cyanopiperidin-1-yl)prop-1-yn-1-yl)-2-((S)-1-methoxyethyl)pyridin-3-yl)-1^1-ethyl-12,12-dimethyl-7,9-dioxo-8^1,8^2,8^3,8^4,8^5,8^6-hexahydro-1^1 H-10-oxa-4(4,2)-oxazola-8(1,3)-pyridazina-1(3,4)-pyrrolacyclotridecaphan-2-en-6-yl)-3-oxabicyclo[3.1.0]hexane-6-carboxamide] in this work. For the same compound, the IC50 [4] was 0.13 nM.
An IC50 [1] of 0.05 nM, an IC50 [2] of 0.32 nM and an IC50 [3] of 0.11 nM were found for CCn1cc2c(c1-c1cc(C#CCN3CCC(C#N)(CO)CC3)cnc1[C@H](C)OC)CC(C)(C)COC(=O)[C@@H]1CCCN(N1)C(=O)[C@@H](NC(=O)[C@H]1[C@H](C)[C@@H]1C)Cc1nc(cs1)/C=C/2 (atropisomer, axis not shown; (Ra)) [Compound Z103, (1r,2R,3S)-N-((4^2Z,8^3S,2E,6S)-(Ra)-1^5-(5-(3-(4-cyano-4-(hydroxymethyl)piperidin-1-yl)prop-1-yn-1-yl)-2-((S)-1-methoxyethyl)pyridin-3-yl)-1^1-ethyl-12,12-dimethyl-7,9-dioxo-8^1,8^2,8^3,8^4,8^5,8^6-hexahydro-1^1H-10-oxa-4(4,2)-thiazola-8(1,3)-pyridazina-1(3,4)-pyrrolacyclotridecaphan-2-en-6-yl)-2,3-dimethylcyclopropane-1-carboxamide] in this work. The IC50 [4] was 0.08 nM.
An IC50 [1] of 0.19 nM, an IC50 [2] of 0.47 nM and an IC50 [3] of 0.14 nM were found for CCn1cc2c(c1-c1cc(C#CCN3CCC(C#N)(CO)CC3)cnc1[C@H](C)OC)CC(C)(C)COC(=O)[C@@H]1CCCN(N1)C(=O)[C@@H](NC(=O)[C@H]1[C@@H]3COC[C@@H]31)Cc1nc(cs1)/C=C/2 (atropisomer, axis not shown; (Ra)) [Compound Z104, (1R,5S,6r)-N-((4^2Z,8^3S,2E,6S)-(Ra)-1^5-(5-(3-(4-cyano-4-(hydroxymethyl)piperidin-1-yl)prop-1-yn-1-yl)-2-((S)-1-methoxyethyl)pyridin-3-yl)-1^1ethyl-12,12-dimethyl-7,9-dioxo-8^1,8^2,8^3,8^4,8^5,8^6-hexahydro-1^1H-10-oxa-4(4,2)-thiazola-8(1,3)-pyridazina-1(3,4)-pyrrolacyclotridecaphan-2-en-6-yl)-3-oxabicyclo[3.1.0]hexane-6-carboxamide] in this work. For the same compound, the IC50 [4] was 0.17 nM.
An IC50 [1] of 0.24 nM, an IC50 [2] of 0.47 nM and an IC50 [3] of 0.28 nM were found for CCn1cc2c(c1-c1cc(C#CCN3CCS(=O)(=O)CC3)cnc1[C@H](C)OC)CC(C)(C)COC(=O)[C@@H]1CCCN(N1)C(=O)[C@@H](NC(=O)[C@H]1[C@H](C)[C@@H]1C)Cc1nc(cs1)/C=C/2 (atropisomer, axis not shown; (Ra)) [Compound Z118, (1r,2R,3S)-N-((4^2Z,8^3S,2E,6S)-(Ra)-1^5-(5-(3-(1,1-dioxidothiomorpholino)prop-1-yn-1-yl)-2-((S)-1-methoxyethyl)pyridin-3-yl)-1^1-ethyl-12,12-dimethyl-7,9-dioxo-8^1,8^2,8^3,8^4,8^5,8^6-hexahydro-1^1H-10-oxa-4(4,2)-thiazola-8(1,3)-pyridazina-1(3,4)-pyrrolacyclotridecaphan-2-en-6-yl)-2,3-dimethylcyclopropane-1-carboxamide] in this work. The IC50 [4] was 0.2 nM.

Source: patent EP4772514A1, “MACROCYCLIC COMPOUNDS, PREPARATION METHOD THEREFOR, AND USE THEREOF” (Genfleet Therapeutics (Shanghai) Inc., priority 2023, dated 2025)
